These results are taken from patent US5605911A, “Use of alpha-2 adrenergic drugs to prevent adverse effects of NMDA receptor hypofunction (NRH)” (priority 1995, dated 1997).

In data set [1] the test system is KA and/or QUIS/AMPA classes of EAA receptors. As to the kind of experiment: blocking of MK-801 neurotoxic side effects by non-NMDA antagonist drugs in vivo. The settings on record: adult rats. The source says:
In addition to the foregoing classes of drugs, the Applicants have also recently discovered that non-NMDA antagonist drugs which can penetrate the BBB and block the KA and/or QUIS/AMPA classes of EAA receptors.

The subject of a further data set is cerebral cortex. Conditions: adult rat, literature; cited from earlier work.
A further data set relates to NMDA receptor. Conditions: humans, literature; cited from earlier work.
Data set [2] in a line: penetration of sulpiride into the CNS. Conditions: in words. The data set is classed as in vivo.
In a further data set the test system is PC/RS cortical neurons. Description: protection by anti-psychotic drugs against MK-801 (NRH)-induced vacuoles in rats. The format is in vivo. The settings on record: ip; for protection against vacuoles (activity in words): MK-801-treated rats. Here is the method:
Control animals received saline or DMSO, but no anti-psychotic drugs. Test animals were injected ip with an antipsychotic drug, listed above and in Table 2. Vacuoles were counted and data were processed as described in Example 1.

For data set [3] the following is noted: Sershen 1994; cited from earlier work.
For data set [4] the following is noted: compared to clonidine, cited from earlier work.
Data set [5] relates to people addicted to cigarettes or opiates. The settings on record: cited from earlier work.
The subject of another data set is α2 receptors. Conditions: in words; cited from earlier work.

“Also recorded” adds a separate entry of the source. Where two headings read alike, the source gives them in different places. A value given as a limit tells only on which side of the number the result lay.

As for `NS(=O)(=O)c1cccc2c1c([N+](=O)[O-])cc1nc(O)c(O)nc12` [NBQX, 2,3-dihydroxy-6-nitro-7-sulfamoylbenzo(F)quinoxaline], the “block of neurotoxic side effects of NMDA antagonist drugs such as MK-801” value in [1] was “can also block the neurotoxic side effects of NMDA antagonist drugs such as MK-801”.
On to `c1ccc(C2(N3CCCCC3)CCCCC2)cc1` [Phencyclidine], for which, in the data set on cerebral cortex, the “pathomorphological changes in brain” value is “produce pathomorphological changes in various corticolimbic regions of the adult rat brain”. Also, the psychotomimetic reactions result in the data set with NMDA receptor is given as “can induce a psychosis which is clinically indistinguishable from schizophrenia”.
As to `CCN1CCCC1CNC(=O)c1cc(S(N)(=O)=O)ccc1OC` (stereo not drawn) [Sulpiride], the “time to penetrate into the CNS” value in data set [2] is “several hours”. The compound also returned an ED50 in the data set on PC/RS cortical neurons (Rattus norvegicus, Cortical neurone) of over 200 mg/kg. In addition, the “protection against vacuoles (activity in words)” value is “Inactive” in the data set with PC/RS cortical neurons and “inactive” in the data set with PC/RS cortical neurons (listed as sulpiride).
`CC[C@H]1C[C@H]2C[C@H]3c4[nH]c5ccc(OC)cc5c4CCN(C2)[C@@H]13` [ibogaine]: the craving for cocaine result in data set [3] is recorded as “can suppress the craving for cocaine”.
For the compound `CC(Oc1c(Cl)cccc1Cl)C1=NCCN1` (stereo not drawn) [lofexidine], the values for the hypotensive side effects result in data set [4] and in data set [4] (listed as Lofexidine) were “substantially lower hypotensive side effects than clonidine; also recorded: substantially lower activity in reducing blood pressure than clonidine” and “reduced hypotensive side effects compared to clonidine”, respectively. Moreover, in data set [5], the “reduction of withdrawal symptoms” value is listed as “help reduce withdrawal symptoms in some recovering addicts”. For the same compound, in the data set on α2 receptors, the “affinity/selectivity for α2 over α1 receptors” value is recorded as “activate α2 receptors with higher affinity than they have for α1 receptors”.
